Laboratory results from patent publication US10597388B2, “Pyridazinone herbicides” (FMC CORPORATION, priority 2014, dated 2020).

Experiments:
Type in all cases: in vivo
[1] = tested on: blackgrass (Alopecurus myosuroides); assay: Test A greenhouse herbicide test, postemergence
Method in brief: (§1)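 Pot-grown plants (loam soil/sand blend), 2–10 cm tall at the one- to two-leaf stage, received postemergence sprays of formulated test chemical. After about 10 d in the greenhouse, injury was rated visually against untreated controls on a 0 (no effect) to 100 (complete control) scale.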

[2] = tested on: galium (catchweed bedstraw, Galium aparine); assay: Test A greenhouse herbicide test, postemergence
Method in brief: as §1

[3] = tested on: barnyardgrass (Echinochloa crus-galli); assay: Test C greenhouse herbicide test, pre- and postemergence
Method in brief: (§2)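 Seeds sown in loam–sand blend treated preemergence; plants in peat-based medium sprayed postemergence at 2–18 cm (1- to 4-leaf stage); chemicals in non-phytotoxic solvent with surfactant. Greenhouse 13–15 d, then visual rating versus controls on 0–100 scale (0 no effect, 100 complete control).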

[4] = tested on: crabgrass, large (large crabgrass, Digitaria sanguinalis); assay: as above
Method in brief: as §2

[5] = tested on: foxtail, giant (giant foxtail, Setaria faberii); assay: as above
Method in brief: as §2

[6] = tested on: galium (catchweed bedstraw, Galium aparine); assay: as above
Method in brief: as §2

[7] = tested on: johnsongrass (Sorghum halepense); assay: as above
Method in brief: as §2

[8] = tested on: lambsquarters (Chenopodium album); assay: as above
Method in brief: as §2

[9] = tested on: morningglory (Ipomoea coccinea); assay: as above
Method in brief: as §2

[10] = tested on: oilseed rape (Brassica napus); assay: as above
Method in brief: as §2

[11] = tested on: ragweed (common ragweed, Ambrosia elatior); assay: as above
Method in brief: as §2

[12] = tested on: ryegrass, Italian (Italian ryegrass, Lolium multiflorum); assay: as above
Method in brief: as §2

[13] = tested on: wheat (winter wheat, Triticum aestivum); assay: as above
Method in brief: as §2

[14] = 125 g ai/ha, 0 to 100 scale where 0 is no effect and 100 is complete control
[15] = 500 g ai/ha, 0 to 100 scale, 0 is no effect, 100 is complete control
[16] = Postemergence, 31 g ai/ha, 0 to 100 scale (0 no effect, 100 complete control)
[17] = Postemergence, 125 g ai/ha, scale 0 to 100, 0 is no effect, 100 is complete control
[18] = Postemergence, 250 g ai/ha, scale 0 to 100, 0 no effect, 100 complete control, 13 to 15 d
[19] = Preemergence, 31 g ai/ha, scale 0 to 100, 0 is no effect, 100 is complete control
[20] = Preemergence, 62 g ai/ha, scale 0 to 100, 0 is no effect, 100 is complete control
[21] = Preemergence, 125 g ai/ha, scale 0 to 100, 0 is no effect, 100 is complete control
[22] = Preemergence, 250 g ai/ha, scale 0 to 100, 0 no effect, 100 complete control
[23] = postemergence, 62 g ai/ha, scale 0 to 100, 0 no effect, 100 complete control
[24] = 500 g ai/ha, visual rating after approx. 10 d, 0 to 100 scale (0 no effect, 100 complete control)

Cc1nn(C)c(=O)c(-c2ccc(Br)c3ccccc23)c1O [Compound 75]
85: Barnyardgrass plant response rating [3, 22] | Plant response rating, Lambsquarters [8, 21] | Plant response rating, Morningglory [9, 20] | Plant response rating, Ragweed [11, 20] | Ragweed plant response rating [11, 23] | Plant response rating, Ryegrass, Italian [12, 17] | Plant response rating, Ryegrass, Italian [12, 18]
70: Blackgrass plant response rating [1, 15] | Plant response rating, Foxtail, Giant [5, 21] | Plant response rating, Morningglory [9, 19] | Oilseed Rape plant response rating [10, 16] | Plant response rating, Oilseed Rape [10, 20] | Oilseed Rape plant response rating [10, 23]
98: Galium plant response rating [6, 22] | Morningglory plant response rating [9, 16] | Oilseed Rape plant response rating [10, 22]
30: Plant response rating, Oilseed Rape [10, 19]
20: Plant response rating, Barnyardgrass [3, 18] | Plant response rating, Crabgrass, Large [4, 18] | Plant response rating, Johnsongrass [7, 20] | Plant response rating, Johnsongrass [7, 21]
0: Plant response rating, Johnsongrass [7, 19] | Wheat plant response rating [13, 16] | Plant response rating, Wheat [13, 17] | Plant response rating, Wheat [13, 18] | Plant response rating, Wheat [13, 19] | Plant response rating, Wheat [13, 20] | Wheat plant response rating [13, 23]
80: Plant response rating, Oilseed Rape [10, 18] | Plant response rating, Ragweed [11, 19] | Ryegrass, Italian plant response rating [12, 16] | Ryegrass, Italian plant response rating [12, 23]
50: Plant response rating, Blackgrass [1, 14] | Plant response rating, Barnyardgrass [3, 21] | Crabgrass, Large plant response rating [4, 22]
90: Plant response rating, Galium [2, 14] | Galium plant response rating [6, 16] | Plant response rating, Galium [6, 17] | Plant response rating, Galium [6, 18] | Plant response rating, Galium [6, 19] | Plant response rating, Galium [6, 20] | Plant response rating, Galium [6, 21] | Galium plant response rating [6, 23] | Lambsquarters plant response rating [8, 22] | Plant response rating, Oilseed Rape [10, 17] | Plant response rating, Oilseed Rape [10, 21] | Plant response rating, Ragweed [11, 21] | Plant response rating, Ryegrass, Italian [12, 19] | Plant response rating, Ryegrass, Italian [12, 20] | Plant response rating, Ryegrass, Italian [12, 21] | Ryegrass, Italian plant response rating [12, 22]
15: Plant response rating, Barnyardgrass [3, 17]
45: Plant response rating, Foxtail, Giant [5, 20]
25: Barnyardgrass plant response rating [3, 16] | Plant response rating, Barnyardgrass [3, 20] | Barnyardgrass plant response rating [3, 23] | Plant response rating, Crabgrass, Large [4, 21]
65: Plant response rating, Lambsquarters [8, 19]
95: Plant response rating, Morningglory [9, 21] | Ragweed plant response rating [11, 16]
100: Galium plant response rating [2, 15] | Lambsquarters plant response rating [8, 16] | Plant response rating, Lambsquarters [8, 17] | Plant response rating, Lambsquarters [8, 18] | Plant response rating, Lambsquarters [8, 20] | Lambsquarters plant response rating [8, 23] | Plant response rating, Morningglory [9, 17] | Morningglory plant response rating [9, 22] | Morningglory plant response rating [9, 23] | Plant response rating, Ragweed [11, 17] | Plant response rating, Ragweed [11, 18] | Ragweed plant response rating [11, 22]
10: Plant response rating, Crabgrass, Large [4, 20] | Crabgrass, Large plant response rating [4, 23] | Plant response rating, Foxtail, Giant [5, 18] | Plant response rating, Johnsongrass [7, 18] | Johnsongrass plant response rating [7, 22] | Plant response rating, Wheat [13, 21]
75: Plant response rating, Crabgrass, Large [4, 19] | Foxtail, Giant plant response rating [5, 22] | Plant response rating, Morningglory [9, 18]
5: Plant response rating, Barnyardgrass [3, 19] | Crabgrass, Large plant response rating [4, 16] | Plant response rating, Crabgrass, Large [4, 17] | Foxtail, Giant plant response rating [5, 16] | Plant response rating, Foxtail, Giant [5, 17] | Plant response rating, Foxtail, Giant [5, 19] | Foxtail, Giant plant response rating [5, 23] | Johnsongrass plant response rating [7, 16] | Plant response rating, Johnsongrass [7, 17] | Johnsongrass plant response rating [7, 23] | Wheat plant response rating [13, 22]

CCC(=O)Oc1c(OC)nn(C)c(=O)c1-c1c(C)sc2ccc(Cl)cc12 [Compound 131]
20: Plant response rating, Crabgrass, Large [4, 20] | Johnsongrass plant response rating [7, 22] | Plant response rating, Oilseed Rape [10, 19] | Plant response rating, Wheat [13, 21] | Wheat plant response rating [13, 22]
90: Plant response rating, Foxtail, Giant [5, 21] | Plant response rating, Galium [6, 20]
95: Plant response rating, Galium [6, 21] | Galium plant response rating [6, 22] | Lambsquarters plant response rating [8, 22] | Morningglory plant response rating [9, 22] | Plant response rating, Ragweed [11, 20] | Plant response rating, Ryegrass, Italian [12, 21] | Ryegrass, Italian plant response rating [12, 22]
30: Plant response rating, Blackgrass [1, 14]
85: Plant response rating, Foxtail, Giant [5, 20] | Plant response rating, Galium [6, 19] | Plant response rating, Lambsquarters [8, 21] | Plant response rating, Morningglory [9, 21] | Plant response rating, Oilseed Rape [10, 21]
10: Plant response rating, Barnyardgrass [3, 21] | Plant response rating, Ryegrass, Italian [12, 19]
50: Plant response rating, Blackgrass [1, 24]
100: Plant response rating, Galium [2, 24]
35: Barnyardgrass plant response rating [3, 22] | Plant response rating, Foxtail, Giant [5, 19] | Plant response rating, Morningglory [9, 19]
70: Plant response rating, Galium [2, 14] | Plant response rating, Lambsquarters [8, 20]
80: Crabgrass, Large plant response rating [4, 22] | Oilseed Rape plant response rating [10, 22] | Plant response rating, Ryegrass, Italian [12, 20]
40: Plant response rating, Oilseed Rape [10, 20]
65: Plant response rating, Ragweed [11, 19]
0: Plant response rating, Barnyardgrass [3, 19] | Plant response rating, Barnyardgrass [3, 20] | Plant response rating, Crabgrass, Large [4, 19] | Plant response rating, Johnsongrass [7, 19] | Plant response rating, Johnsongrass [7, 20] | Plant response rating, Johnsongrass [7, 21] | Plant response rating, Wheat [13, 19] | Plant response rating, Wheat [13, 20]
55: Plant response rating, Morningglory [9, 20]
98: Foxtail, Giant plant response rating [5, 22] | Plant response rating, Ragweed [11, 21] | Ragweed plant response rating [11, 22]
60: Plant response rating, Crabgrass, Large [4, 21] | Plant response rating, Lambsquarters [8, 19]
